Like-named read-outs stand apart in the source and are kept apart here.
Method: The substrate depletion method was used to determine half-life (t1/2) of compounds by measuring the disappearance of the parent compound over time. Incubations were performed on a Tecan EVO 200 robotic system (Morrisville, NC, USA), equipped with a 96-channel head, Inheco heating block, and controlled by EVOware software (Version 3.5). Mixed-gender human liver microsomes were purchased from Xenotech (Kansas City, KS, USA) (Catalog: H0610). Gentest NADPH Regenerating Solution A and B (Catalog: 451220/451200), Axygen reservoirs (Catalog: RES-SW384-LP/RES-SW384-HP) were purchased from Corning Inc. (Corning, NY, USA). Incubation plates (384-well, 250 µL; Catalog# 186002632) and LC/MS analysis plates (384-well, 100 µL; Catalog# 186002631) were purchased from Waters Inc. (Milford, MA, USA). […] An albendazole solution in acetonitrile (ACN/IS) was prepared for use as an internal standard. Each 110 μL reaction mixture included the test compound (1 μM), HLM (0.5 mg/mL), and NADPH regenerating system in phosphate buffer (pH 7.4). The samples were incubated in 384-well plates at 37 °C for 0, 5, 10, 15, 30, and 60 min. At each designated time point, 10 μL of the mixture was transferred to another 384-well plate containing cold ACN/IS. The plates were then centrifuged at 3000 rpm for 20 min at 4 °C, and supernatants were collected into a 384-well injection plate. Sample quantification was performed using Thermo UPLC/HRMS and data were analyzed using TraceFinder software (Version 4.1). The data were then extracted, and half-life analysis was performed using our in-house Validator software (Version 1.0) as described previously.
[1] = mixed-gender HLM 0.5 mg/mL, test compound 1 μM, NADPH regenerating system, pH 7.4, 37 °C, 0-60 min, mean ± S.D. over 6 years, > 40 plates, t1/2 capped at 120 min

Cc1cc(=O)n(-c2ccccc2)n1C [Antipyrine, antipyrine]
Half-Life (t1/2) (pH 7.4): >120 min

O=C1CC2(CCCC2)CC(=O)N1CCCCN1CCN(c2ncccn2)CC1 [Buspirone, buspirone]
Half-Life (t1/2) [1]: 14.4 ± 4.1 min

CC(C)NCC(O)COc1cccc2ccccc12 (stereo not drawn) [Propranolol, propranolol]
Half-Life (t1/2) [1]: 55.2 ± 10.1 min

Source: PMC11510424, “Developing Robust Human Liver Microsomal Stability Prediction Models: Leveraging Inter-Species Correlation with Rat Data” (Pharmaceutics, 2024)
